Data published in patent publication US20220119431A1, “SALT OF EGFR INHIBITOR, CRYSTAL FORM, AND PREPARATION METHOD THEREFOR” (priority 2019, published 2022).
One block for each molecule: values may come before it.

Assays:
[1] = Stability test, influencing factors (illumination, high temperature, high humidity); type: physicochemical
Method: Illumination test chamber, model: SHH-100GD-2, conditions: 5000±500 lux (visible light) and 90 mw/cm^2 (ultraviolet).
Electric heating blast drying oven, model: GZX-9140MBE condition: 60° C.
Constant temperature and humidity chamber, model: SHH-250SD, condition: 25° C./75% RH.
(§1) Influencing factor experimental conditions (high temperature of 60° C., high humidity of 75% RH, illumination): an appropriate amount of crystalline form A of the compound of formula (IIA) was placed in a dry and clean open weighing bottle, then the bottle was placed into a dryer under different conditions, and then placed into a corresponding thermostat for observation. The bottle was taken out after being placed for 5 days, 10 days and 30 days, and related substances and contents thereof were measured. Accelerated and long-term experimental conditions (40° C./75% RH, 25° C./60% RH): an appropriate amount of crystalline form A of the compound of formula (IIA) was filled into a double-layer LDPE bags, each layer of LDPE bag was sealed by a binding buckle, then put into an aluminum foil bag for heat sealing, and then put into a corresponding thermostat to observe acceleration and long-term stability.

[2] = Stability test, accelerated conditions 40° C./75% RH (Test Example 3); type: physicochemical; details: 40° C. ± 2° C./75% RH ± 5% RH
Method: (§2) Constant temperature and humidity chamber, model: LDS-800Y, condition: 40° C./75% RH and 25° C./60% RH.
as §1

[3] = Stability test, long-term conditions 25° C./60% RH (Test Example 3); type: physicochemical; details: 25° C. ± 2° C./60% RH ± 5% RH
Method: as §2, §1

[4] = Stability test, accelerated test 40° C./75% RH (Test Example 4); type: physicochemical; details: 40° C. ± 2° C., 75% RH ± 5% RH
Text: The conditions and the method for the raw material stability test are mainly based on related requirements such as “Guidelines for the Stability Test of APIs and Preparations” (General Principles 9001 of the Four Parts of the Chinese Pharmacopoeia, 2015 Edition) and technical guidelines for stability study on chemical drugs (raw materials and preparations) issued by the National Medical Products Administration in February, 2015 (revised), and are specifically shown in Table 14.

[5] = tested on: L858R/T790M/C797S mutation; details: in combination with an EGFR monoclonal antibody drug such as Cetuximab; cited from earlier work
[6] = tested on: Ba/F3 (Δ19 del/T790M/C797S); assay: In vivo efficacy in BALB/c nude mice with subcutaneous Ba/F3 (Δ19 del/T790M/C797S) xenograft (CDX); details: for tumor volume inhibition value (TGI): 13 consecutive days
Method: In vivo drug efficacy experiment was performed on xenograft (CDX) BALB/c nude mice subcutaneously implanted with Ba/F3 (Δ19 del/T790M/C797S) source. BALB/c nude mice (female, 6-8 weeks, weighing about 18-22 g) were bred in SPF-rated environments, and each cage was ventilated individually (5 mice per cage). All animals were free to obtain a standard certified commercial laboratory diet. 48 mice in total were purchased from Beijing Vital River Laboratory Animal Technology Co., Ltd for the study. Each mouse was implanted with cells subcutaneously in the right flank for tumor growth. The experiment was started when the mean tumor volume reached about 80-120 mm^3. The test compound was administered orally daily with the compound of formula (I) (5 mg/kg, 15 mg/kg, 45 mg/kg, respectively) administered for 13 consecutive days, and the data are shown in Table 5. Tumor volume was measured twice weekly with a two-dimensional caliper, and the volume was measured in mm^3 and calculated according to the following formula: V=0.5a×b^2, where a and b are the long and short diameters, respectively, of the tumor. Anti-tumor efficacy was determined by dividing the mean tumor increase volume of compound-treated animals by the mean tumor increase volume of untreated animals.

[7] = Plasma, tumor and lung exposure in the efficacy-study mice after last administration; type: in vivo, BALB/c nude mice; details: 15.0 mg/kg/day oral
Method: On day 14 after administration to the groups for the efficacy experiment, before the last administration and 2 h after the last administration, the plasma of the mice was collected by blood collection from the submandibular vein, and the plasma of the mice was collected at 1 h, 4 h, 8 h, and 24 h after the administration. About 100 μL of blood was collected each time, placed in an anticoagulation tube, and centrifuged at 8000 rpm for 7 min to collect blood plasma, and the blood plasma was preserved at −80° C. Tissues of mouse lung and tumor were collected at the same time 2 h after the administration and stored at −80° C.

lung cancer PC-9 cells = assay: In vivo efficacy in mice with subcutaneous lung cancer PC-9 xenograft; design: species or system mouse; details: 50 mg/kg (0-9 days), 25 mg/kg (10-21 days) oral once a day
Method: 1. Cell culture: lung cancer PC-9 cells were cultured in an RPMI 1640 medium containing 10% fetal bovine serum, 100 U/mL penicillin and 100 μg/mL streptomycin through in vitro monolayer culture in an incubator at 37° C./5% CO2. The cells were digested with trypsin-EDTA twice a week for passaging as per conventional practice. At a cell saturation of 80%-90% and a required number, the cells were collected and counted. The cell density was 5×10^6 cells. 2. Cell inoculation: 0.2 mL (containing 5×10^6) of a suspension of PC-9 cells (PBS:Matrigel=1:1) was subcutaneously inoculated in the right back of each mouse, and 64 mice were inoculated in total. On day 7 after inoculation, when mean tumor volume was measured to be 169 mm^3, grouping administration was performed using a randomized stratified grouping method based on tumor volume and mice body weight. PBS is phosphate buffered saline, and Matrigel is matrigel. 3. Administration: the dosage was 50 mg/kg for 0-9 days and 25 mg/kg for 10-21 days; the drug was orally administrated once a day for 3 weeks.
Tumor diameters were measured twice weekly using a vernier caliper. The tumor volume was calculated using the following formula: V=0.5a×b^2, where a and b represent the long diameter and short diameter of the tumor respectively.
The efficacy of compounds against tumor was evaluated by TGI (%).
Relative tumor volume (RTV) was calculated based on the results of tumor measurement. The formula is RTV=Vt/V0, where V0 represents the tumor volume measured at the time point of grouping and administration (i.e., Do), and Vt represents the tumor volume at a certain measurement for the corresponding mouse, the data of TRTV and CRTV should be measured on the same day.
TGI (%) reflects the tumor growth inhibition rate. TGI (%)=[(1−(average tumor volume at the end of administration in a treatment group−average tumor volume at the start of administration of the treatment group))/(average tumor volume at the end of treatment of the solvent control group−average tumor volume at the start of treatment of the solvent control group)]×100%.
Tumor weights will be measured at the end of the experiment and the TGI (%) was calculated.

[8] = High humidity (25° C./75% RH), Day 5
[9] = High temperature (60° C.), Day 5
[10] = High temperature (60° C.), Day 10
[11] = High temperature (60° C.), Day 30
[12] = Light stability experiment, Day 5
[13] = Light stability experiment, Day 10
[14] = BALB/c nude, mouse, plasma, day 14

Content [1, 8]: 99.6%
Total impurities [1, 8]: 1.41%
Content [1, 9]: 99.1%
Total impurities [1, 9]: 1.59%
Content [1, 10]: 101.6%
Total impurities [1, 10]: 1.63%
Content [1, 11]: 99.4%
Total impurities [1, 11]: 1.71%
Content ([1]; Initial value): 97.3%
Total impurities ([1]; Initial value): 1.63%
Content [1, 12]: 97.1%
Total impurities [1, 12]: 1.99%
Content [1, 13]: 95.1%
Total impurities [1, 13]: 2.21%
Content ([2]; 0 day): 97.3%
Total impurities ([2]; 0 day): 1.63%
Content ([2]; 1 month): 99.1%
Total impurities ([2]; 1 month): 1.71%
Content ([2]; 2 months): 98.1%
Total impurities ([2]; 2 months): 1.50%
Content ([2]; 3 months): 98.6%
Total impurities ([2]; 3 months): 1.56%
Content ([2]; 6 months): 97.9%
Total impurities ([2]; 6 months): 1.61%
Content ([3]; 0 day): 97.3%
Total impurities ([3]; 0 day): 1.63%
Content ([3]; 3 months): 99%
Total impurities ([3]; 3 months): 1.61%
Content ([3]; 6 months): 98.2%
Total impurities ([3]; 6 months): 1.73%
Content ([3]; 9 months): 99.4%
Total impurities ([3]; 9 months): 1.83%
Content ([3]; 12 months): 97.7%
Total impurities ([3]; 12 months): 1.69%
Sum of impurities ([4]; month 0): 1.18%
Water ([4]; month 0): 3.0%
Sum of impurities ([4]; month 1): 1.10%
Water ([4]; month 1): 3.0%
Sum of impurities ([4]; month 2): 1.18%
Water ([4]; month 2): 3.5%
Sum of impurities ([4]; month 3): 1.30%
Water ([4]; month 3): 3.2%
Sum of impurities ([4]; month 6): 1.18%
Water ([4]; month 6): 2.8%
Compound: COc1cc(N2CCC(N3CCN(C)CC3)CC2)c(C)cc1Nc1ncc(Br)c(Nc2ccc3nccnc3c2P(C)(C)=O)n1

Compound: O=C(Nc1nccs1)C(c1cc(F)ccc1O)N1Cc2ccccc2C1=O (stereo not shown) [EAI045]
tumor inhibitory effect [5]: good tumor inhibitory effect

Lung concentration, 2 h ([7]; 2 h after last administration): 32533 nmol/kg
Tumor concentration, 2 h ([7]; 2 h after last administration): 16667 nmol/kg
concentration at 2 h ([7]; BALB/c nude, mouse, plasma, 2 h after last administration): 3.55 µM
AUC(0-t) [7, 14]: 57 µM·h
half-life [7, 14]: 10 h
Compound: COc1cc(N2CCC(N3CCN(C)CC3)CC2)c(C)cc1Nc1ncc(Br)c(Nc2ccc3nccnc3c2P(C)(C)=O)n1 [Compound of formula (I)]
Tumor volume ([6]; 5 mg/kg/day oral, Day 0): 84 mm^3
Tumor volume ([6]; 5 mg/kg/day oral, Day 2): 108 mm^3
Tumor volume ([6]; 5 mg/kg/day oral, Day 5): 212 mm^3
Tumor volume ([6]; 5 mg/kg/day oral, Day 8): 395 mm^3
Tumor volume ([6]; 5 mg/kg/day oral, Day 10): 505 mm^3
Tumor volume ([6]; 5 mg/kg/day oral, Day 12): 748 mm^3
Tumor volume ([6]; 5 mg/kg/day oral, Day 13): 881 mm^3
tumor volume inhibition value (TGI) ([6]; 15 mg/kg oral daily): 74.9%
Tumor volume ([6]; 15 mg/kg/day oral, Day 0): 84 mm^3
Tumor volume ([6]; 15 mg/kg/day oral, Day 2): 76 mm^3
Tumor volume ([6]; 15 mg/kg/day oral, Day 5): 107 mm^3
Tumor volume ([6]; 15 mg/kg/day oral, Day 8): 126 mm^3
Tumor volume ([6]; 15 mg/kg/day oral, Day 10): 176 mm^3
Tumor volume ([6]; 15 mg/kg/day oral, Day 12): 292 mm^3
Tumor volume ([6]; 15 mg/kg/day oral, Day 13): 326 mm^3
tumor volume inhibition value (TGI) ([6]; 45 mg/kg oral daily): 101.69%
Tumor volume ([6]; 45 mg/kg/day oral, Day 0): 84 mm^3
Tumor volume ([6]; 45 mg/kg/day oral, Day 2): 56 mm^3
Tumor volume ([6]; 45 mg/kg/day oral, Day 5): 32 mm^3
Tumor volume ([6]; 45 mg/kg/day oral, Day 8): 35 mm^3
Tumor volume ([6]; 45 mg/kg/day oral, Day 10): 42 mm^3
Tumor volume ([6]; 45 mg/kg/day oral, Day 12): 73 mm^3
Tumor volume ([6]; 45 mg/kg/day oral, Day 13): 68 mm^3
Tumor volume (lung cancer PC-9 cells; Day 0): 185 mm^3
Tumor volume (lung cancer PC-9 cells; Day 2): 198 mm^3
Tumor volume (lung cancer PC-9 cells; Day 6): 92 mm^3
Tumor volume (lung cancer PC-9 cells; Day 9): 75 mm^3
Tumor volume (lung cancer PC-9 cells; Day 13): 40 mm^3
Tumor volume (lung cancer PC-9 cells; Day 16): 45 mm^3
Tumor volume (lung cancer PC-9 cells; Day 20): 76 mm^3
Tumor volume (lung cancer PC-9 cells; Day 23): 111 mm^3
TGI (lung cancer PC-9 cells; day 23): 100%
